Experimental findings from ChEMBL document CHEMBL1201862, “PubChem BioAssay data set” (2004) are described below.

SMILES strings stand for the structures. “And” between values parts separate entries of the source, which are not always exact repeats. Equal values may be shown once.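 Growth conditions: 96-well plates. Treatment: test compound, 48 hours, 5 concentrations. Analysis: linear interpolation between bracketing concentrations; unreached endpoints set to highest concentration. GI50 marks 50% less growth.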 The source made the active and inactive calls. No stated cut-off is given here; in the data, active = GI50 up to about 1.1 µM and inactive = higher.

Test systems include COLO 205; Malme-3M; UACC-257; UO-31; EKVX; SW-620; MCF7; MOLT-4; HT-29; NCI/ADR-RES; M14; SK-OV-3; U-251; OVCAR-3; SK-MEL-5; SF-268; SNB-19; CCRF-CEM; SN12C; SNB-75.
What all share (experiment): growth of human tumour cells (NCI), 48 h

Take `COC1OC2COC(c3ccccc3)OC2C(OC(=S)c2ccccc2)C1O` (centres undefined): the GI50 in the assay on COLO 205 was > 100 µM (inactive); in the assay on Malme-3M, 4.45 µM (inactive); with UACC-257, > 100 µM (inactive); with UO-31, > 100 µM (inactive); with EKVX, 0.358 µM (active); in the assay with SW-620, > 100 µM (inactive). Besides, the GI50 was > 100 µM (inactive) in the assay on MCF7; > 100 µM (inactive) in the assay on MOLT-4; > 100 µM (inactive) in the assay on HT-29; 15.5 µM (inactive) in the assay with NCI/ADR-RES; > 100 µM (inactive) in the assay on M14; 19.2 µM (inactive) in the assay on SK-OV-3. In addition, the GI50 in the assay with U-251 is 11.5 µM (inactive); with OVCAR-3, > 100 µM (inactive); with SK-MEL-5, > 100 µM (inactive); in the assay on SF-268, 27 µM (inactive); with SNB-19, > 100 µM (inactive); in the assay on CCRF-CEM it was 14.3 µM (inactive). Further, the GI50 in the assay on SN12C is 46.3 µM (inactive).

As to `COc1nc(C#CCC(C)O)nc(OC)n1` (centres undefined), the GI50 in the assay on COLO 205 was 25.4 µM (inactive); in the assay with SNB-75, 27 µM (inactive); with Malme-3M it was 11.5 µM (inactive); with UACC-257, 30.9 µM (inactive); in the assay with UO-31, 18.2 µM (inactive); in the assay with EKVX, 20 µM (inactive). The GI50 is 23.1 µM (inactive) in the assay with SW-620; 13.1 µM (inactive) in the assay on MCF7; 33.2 µM (inactive) in the assay on MOLT-4; 31.3 µM (inactive) in the assay with HT-29; 21 µM (inactive) in the assay on NCI/ADR-RES; 16.9 µM (inactive) in the assay on M14. The GI50 in the assay with SK-OV-3 is > 100 µM (inactive); in the assay with U-251, 29.6 µM (inactive); in the assay with OVCAR-3 it was 19.5 µM (inactive); in the assay with SK-MEL-5, 18.8 µM (inactive); in the assay with SF-268, 21.3 µM (inactive); in the assay with SNB-19, > 100 µM (inactive). Further, the GI50 in the assay with SN12C is 19.5 µM (inactive).

On to `COCCCNc1nc(N)c(C#N)c(C#N)c1C#N`, for which the GI50 with COLO 205, with SNB-75, in the assay with Malme-3M, with UO-31, in the assay on EKVX and with SW-620 was > 10 µM (inactive) throughout. Further, the GI50 in the assay on MCF7, with MOLT-4, in the assay on HT-29, with NCI/ADR-RES, in the assay with M14 and in the assay with SK-OV-3 was > 10 µM (inactive) each time. Also, the GI50 in the assay with U-251 is > 10 µM (inactive); in the assay with OVCAR-3, > 10 µM (inactive); in the assay on SK-MEL-5, > 10 µM (inactive); in the assay with SF-268, > 10 µM (inactive); in the assay on SNB-19, > 10 µM (inactive); with CCRF-CEM, 2.48 µM (inactive). Further, the GI50 in the assay on SN12C was > 10 µM (inactive).

For `Oc1ccc2ccccc2c1/N=N/c1ccccc1`, the GI50 in the assay with COLO 205, with SNB-75, with Malme-3M, in the assay with UACC-257, with UO-31 and in the assay with SW-620 was > 100 µM (inactive) each time. Further, the GI50 was > 100 µM (inactive) in the assay with MCF7; > 100 µM (inactive) in the assay with MOLT-4; 49.5 µM (inactive) and > 64.7 µM (inactive) in the assay on HT-29; > 100 µM (inactive) in the assay on NCI/ADR-RES; > 100 µM (inactive) in the assay on M14; 53.3 µM (inactive) in the assay with SK-OV-3. Further, the GI50 was 51.9 µM (inactive) and > 56 µM (inactive) in the assay on U-251; 51.6 µM (inactive) in the assay on OVCAR-3; > 100 µM (inactive) with SK-MEL-5; > 100 µM (inactive) and > 72.8 µM (inactive) in the assay on SNB-19; > 100 µM (inactive) in the assay on CCRF-CEM; > 100 µM (inactive) in the assay with SN12C.

For `C1=N\CCOCC/N=C\c2ccc(cc2)OCc2cccc(n2)COc2ccc/1cc2`, the GI50 with COLO 205, with SNB-75, in the assay on Malme-3M, with UACC-257, in the assay with UO-31 and in the assay with EKVX was > 100 µM (inactive) each time. In addition, the GI50 in the assay on SW-620 was > 100 µM (inactive); with MCF7, 85.5 µM (inactive); in the assay on MOLT-4, > 100 µM (inactive); with HT-29, > 100 µM (inactive); with NCI/ADR-RES it was > 100 µM (inactive); in the assay with M14, > 100 µM (inactive). Besides, the GI50 with SK-OV-3 is > 100 µM (inactive); in the assay with U-251 it was > 100 µM (inactive); with OVCAR-3, 37.6 µM (inactive); with SF-268, > 100 µM (inactive); in the assay with SNB-19 it was > 100 µM (inactive); in the assay on CCRF-CEM it was > 100 µM (inactive). The GI50 with SN12C is > 100 µM (inactive).

`CC(=O)OC1CCC2(C)C3CCC4(C)C(c5ccc(=O)oc5)CC5OC54C3CCC2(O)C1` (centres undefined): the GI50 in the assay with COLO 205 is 4.28 µM (inactive); in the assay on SNB-75, 1.06 µM (active); in the assay with Malme-3M, 0.895 µM (active); in the assay on UACC-257, 3.04 µM (inactive); in the assay on UO-31, 2.49 µM (inactive); in the assay on EKVX, 0.887 µM (active). In addition, the GI50 is 1.21 µM (inactive) in the assay with SW-620; 2.31 µM (inactive) in the assay on MCF7; 0.348 µM (active) in the assay with MOLT-4; 2.19 µM (inactive) in the assay on HT-29; 1.08 µM (active) in the assay with NCI/ADR-RES; 4.49 µM (inactive) in the assay on SK-OV-3. The GI50 was 2.21 µM (inactive) with U-251; 0.59 µM (active) in the assay on OVCAR-3; 0.714 µM (active) with SK-MEL-5; 0.621 µM (active) with SF-268; 5.18 µM (inactive) with SNB-19; 0.631 µM (active) with CCRF-CEM. For the same compound, the GI50 with SN12C is 0.617 µM (active).

In the case of `CON(C)c1nc(N(C)OC)nc(N(C)OC)n1`, the GI50 with COLO 205, with SNB-75, in the assay with Malme-3M, in the assay on UO-31, with EKVX and in the assay on SW-620 was > 10 µM (inactive) each time. Also, the GI50 with MCF7, in the assay with MOLT-4, in the assay with HT-29, in the assay with NCI/ADR-RES, with M14 and with SK-OV-3 was > 10 µM (inactive) in each case. Further, the GI50 in the assay with U-251, in the assay with OVCAR-3, with SK-MEL-5, in the assay on SF-268, in the assay on SNB-19 and in the assay with CCRF-CEM was > 10 µM (inactive) each time. The GI50 in the assay on SN12C is > 10 µM (inactive).

For the compound `Cc1cn(C2CC(N)C(C(=O)NCC(=O)O)O2)c(=O)[nH]c1=O` (centres undefined), the GI50 with COLO 205, in the assay on SNB-75, in the assay on Malme-3M, in the assay on UO-31, in the assay on EKVX and with SW-620 was > 100 µM (inactive) each time. Also, the GI50 with MCF7, in the assay on MOLT-4, in the assay on HT-29, in the assay with NCI/ADR-RES, with M14 and in the assay on SK-OV-3 was > 100 µM (inactive) each time. Besides, the GI50 in the assay with U-251, in the assay with OVCAR-3, in the assay on SK-MEL-5, with SF-268, in the assay with SNB-19 and in the assay with CCRF-CEM was > 100 µM (inactive) in each case. Moreover, in the assay with SN12C, the GI50 is > 100 µM (inactive).

For `CCN1CCC(O)(C(C(=O)O)c2ccccc2)CC1` (centres undefined), the GI50 in the assay with COLO 205, in the assay with SNB-75, with Malme-3M, in the assay with UACC-257, with UO-31 and with EKVX was > 100 µM (inactive) each time. For the same compound, the GI50 in the assay on SW-620, with MCF7, in the assay with HT-29, in the assay on NCI/ADR-RES, with M14 and in the assay with SK-OV-3 was > 100 µM (inactive) each time. For the same compound, the GI50 in the assay on U-251, in the assay on OVCAR-3, in the assay with SK-MEL-5, in the assay with SF-268, with SNB-19 and in the assay on CCRF-CEM was > 100 µM (inactive) each time.
